The values that follow come from patent US20090171621A1, “MEASURING THE DISTANCE BETWEEN DEVICES” (KONINKLIJKE PHILIPS ELECTRONICS, N.V., priority 2004, published 2009).

The test system of data set [1] is egg-laying chickens. The conditions noted are these: previous art, cited from earlier work.
Data set [2] relates to ISA brown hens. In words: Egg laying performance of hens fed supplemented diet (egg weight, egg production). The conditions noted are these: for Egg weight / Egg production: 6 weeks; for Egg production: percent hen day production. The format is in vivo. The procedure:
(§1) Healthy ISA brown hens, 45-week old, were assigned randomly to each dietary group (control group, 8 birds; experimental group, 6 birds each). Each bird was placed in an individual cage in an environmentally controlled room (25° C., 50% relative humidity, 16L:8D). The hens were allowed for 2 weeks in which to adapt to the feed with no additives and the housing. Control birds were fed a commercial diet based on corn and soybean meal (Table 1), while birds in experimental groups were fed diets supplemented with 0.003 or 0.03% of compactin (Sigma Aldrich Korea) for 6 weeks. Feed and water were provided ad libitum throughout the experiment. Feed consumption, egg production and egg weight were recorded daily. Egg production was expressed as percent hen day production; (100×number of eggs laid)/(number of hens×days).
The effects of 0.003% or 0.03% compactin on the laying performance of 45-week old ISA brown hens were investigated (Table 2). Egg weight was maintained at more than 60 grams after 6 weeks of oral administrations of compactin at both doses. […] Maintenance of laying performance with compactin feeding is of contrast to the previous art in which atorvastatin reduced egg production down to 70% after feeding for 5-week.
Egg production and yolk cholesterol analysis was performed with 0.003 and 0.03% pravastatin administered group with the same procedure as described in Example 1 above. Hen performance was investigated by measuring egg weight and egg production as in Table 4. Pravastatin group had maintained above 80% of egg production rate after 6-week administration, same as control.
Egg production and yolk cholesterol analysis was performed with the same procedure as described in Example 1 above except 0.5 and 1% of Streptomyces cell precipitates and bioconversion reaction broth were administered instead of compactin. Hen performance was investigated by measuring egg weight and egg production as in Table 6.

Data set [3] deals with ISA brown hens. The data set can be described thus: Egg cholesterol analysis (yolk weight, yolk cholesterol by gas chromatography) of hens fed supplemented diet. The data set is classed as in vivo. The conditions noted are these: for Cholesterol content / Cholesterol content change / Cholesterol concentration: 6 weeks; for Egg york weight: 6 weeks (Table 5); for Cholesterol content change: compared to control; for Cholesterol concentration: per gram of yolk; for Total yolk/egg cholesterol content, percentage change (reduction) compared to control: 0.03% in feed. The procedure: as §1
For egg cholesterol analysis, eggs from each bird were collected and egg yolk was separated, weighed, and sampled for analysis. Lipids from eggs were extracted by the method of Folch et al. (1957). Briefly, one gram of sample was saponified with 3 mL of 33% KOH and incubated with 30 mL of 95% methanol in a 65° C. water bath for 90 min. After saponification, 10 mL hexane and 3 mL water were added, followed by vigorous shaking for 10 min. 5α-cholestan (Sigma C-8300) was used as an internal standard. Cholesterol content was determined by a gas chromatography (Shimadzu, Japan) using column VB-1 (30 m×0.25 mm×0.25 μm, VICI Inc.) with a split ratio of 100:1 and nitrogen as carrier gas for a column flow rate of 0.54 mL/min. Injector, column, and detector temperatures were 275° C., 290° C., and 340° C., respectively.
Egg production and yolk cholesterol analysis was performed with 0.003 and 0.03% pravastatin administered group with the same procedure as described in Example 1 above. Hen performance was investigated by measuring egg weight and egg production as in Table 4. […]

The conditions of data set [4]: clinical trials / prescription drug development; cited from earlier work.
Data set [5] deals with egg-laying chickens. Conditions: previous art, cited from earlier work. This is another data set of the same source.

With `CC[C@H](C)C(=O)O[C@H]1C[C@@H](C)C=C2C=C[C@H](C)[C@H](CC[C@@H]3C[C@@H](O)CC(=O)O3)[C@H]21` [lovastatin], the “Reduction of egg cholesterol level” value in the data set with egg-laying chickens [1] (at its high dose) is recorded as 3-6%.

For the compound pravastatin, in the data set on ISA brown hens [2] (0.003 weight % added to feed), the Egg weight is 62.5 ± 0.3 g and the Egg production was found to be 84%. In the data set with ISA brown hens [2] (0.03 weight % added to feed), the Egg weight amounted to 58.8 ± 0.7 g and the Egg production was 82%. Further, the “Egg production rate maintained” value in the data set with ISA brown hens [2] (after 6-week administration, 0.003 and 0.03%) is on record as “above 80%”. For the same compound, in the data set with ISA brown hens [3] (0.003 weight % added to feed), the Cholesterol content came to 207 mg/egg, the Egg york weight turned out to be 16.5 ± 0.4 g, the Cholesterol content change is given as −6% and the Cholesterol concentration worked out at 12.5 ± 0.5 mg/g. Besides, in the data set with ISA brown hens [3] (given without sign), the “Total yolk/egg cholesterol content, percentage change (reduction) compared to control” value worked out at 24%. Further, in the data set with ISA brown hens [3] (0.03 weight % added to feed), the Cholesterol content is listed as 167 mg/egg, the Egg york weight came to 16.1 ± 0.4 g, the Cholesterol content change is −24% and the Cholesterol concentration was 10.4 ± 0.5 mg/g. For the same compound, the Toxicity entry in data set [4] is “not toxic”.

As to `CC(C)c1c(C(=O)Nc2ccccc2)c(-c2ccccc2)c(-c2ccc(F)cc2)n1CC[C@@H](O)C[C@@H](O)CC(=O)O` [atorvastatin], the “Egg production reduced down to” value in the data set with egg-laying chickens [5] (after feeding for 5-week) is 70%. Moreover, in the data set with egg-laying chickens [5], the “Decrease of egg production rate compared to control” value is given as “more than 15%” and the “Effect of oral administration on egg production” value is recorded as “decrease egg production”. Further, the “Cholesterol-lowering effect in eggs” value in the data set on egg-laying chickens [1] (0.03-0.06% fed for 5 weeks) is given as “satisfactory”.

`CC[C@H](C)C(=O)O[C@H]1CCC=C2C=C[C@H](C)[C@H](CC[C@@H]3C[C@@H](O)CC(=O)O3)[C@H]21` [Compactin, compactin]: in the data set with ISA brown hens [2] (in vivo), the “Egg production compared to the control group” value is “did not cause any difference in egg production”. Also, the “Total yolk cholesterol content, percentage change (reduction) compared to control” value with ISA brown hens [3] (0.003% in feed, given without sign) was 16%. In addition, in the data set on ISA brown hens [3] (0.003 weight % added to feed), the Cholesterol content is 185 mg/egg, the Cholesterol content change is on record as −16% and the Cholesterol concentration turned out to be 11.2 ± 0.3 mg/g. The “Total yolk/egg cholesterol content, percentage change (reduction) compared to control” value with ISA brown hens [3] (given without sign) was found to be 29%. Also, in the data set with ISA brown hens [3] (0.03 weight % added to feed), the Cholesterol content worked out at 156 mg/egg, the Cholesterol content change was −29% and the Cholesterol concentration is given as 10.5 ± 0.2 mg/g. The Toxicity result in data set [4] is on record as “serious toxicity”.
